Experimental data published in patent US20240002391A1, “4-ALKOXYPYRROLO[2,1-F][1,2,4]TRIAZINES AND PREPARATION AND USES THEREOF” (BioSplice Therapeutics, Inc., priority 2022, published 2024).

Target: recombinant DYRK1A kinase (Homo sapiens (Human), UniProt Q13627)
Experiment: DYRK1A kinase assay (Ser/Thr 18 peptide Z-lyte FRET)
Type: biochemical
Settings: DYRK1A kinase activity, Z-lyte Ser/Thr 18 peptide, 15 μM ATP; method text calls the value IC50; read-out: EC50 (the source's name)
Procedure, shortened: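 IC50 from non-linear fits of percent phosphorylation, derived from coumarin/fluorescein emission ratio after 1 h protease development. Kinase reaction: 1 h room temperature, 15 μM ATP, 4 μM Ser/Thr peptide 18, 0.25 μg/mL recombinant DYRK1A, duplicate 11-point 1:3 dilutions from 10 μM.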

Row | SMILES | IC50 [nM]
1 | COc1nc(N[C@H]2C[C@@](C)(N)C2)nn2ccc(-c3ccc4nccnc4c3)c12 [Compound 332, cis-N1-(4-Methoxy-5-(quinoxalin-6-yl)pyrrolo[2,1-f][1,2,4]triazin-2-yl)-3-methylcyclobutane-1,3-diamine] | 2.8
2 | COc1nc(N[C@H]2C[C@@](C)(NC(C)=O)C2)nn2ccc(-c3ccc4nccnc4c3)c12 [Compound 333, N-(cis-3-((4-Methoxy-5-(quinoxalin-6-yl)pyrrolo[2,1-f][1,2,4]triazin-2-yl)amino)-1-methylcyclobutyl)acetamide] | 1.1
3 | COc1nc(N[C@H]2C[C@@](C)(NC(=O)OC(C)(C)C)C2)nn2ccc(-c3ccc4nccnc4c3)c12 [Compound 337, tert-Butyl (cis-3-((4-methoxy-5-(quinoxalin-6-yl)pyrrolo[2,1-f][1,2,4]triazin-2-yl)amino)-1-methylcyclobutyl)carbamate] | 11.5
4 | COc1nc(N[C@H]2C[C@](C)(C(=O)N(C)C)C2)nn2ccc(-c3ccc4nccnc4c3)c12 [Compound 339, trans-3-((4-Methoxy-5-(quinoxalin-6-yl)pyrrolo[2,1-f][1,2,4]triazin-2-yl)amino)-N,N,1-trimethylcyclobutane-1-carboxamide] | 4.8
5 | COc1nc(N[C@H]2CC[C@@H](C(C)(C)O)CC2)nn2ccc(-c3ccc4nccnc4c3)c12 [Compound 341, 2-(cis-4-((4-methoxy-5-(quinoxalin-6-yl)pyrrolo[2,1-f][1,2,4]triazin-2-yl)amino)cyclohexyl)propan-2-ol] | 9.3
6 | COc1nc(N[C@H]2CC[C@H](NC(C)=O)CC2)nn2ccc(-c3ccc4nccnc4c3)c12 [Compound 344, N-(trans-4-((4-Methoxy-5-(quinoxalin-6-yl)pyrrolo[2,1-f][1,2,4]triazin-2-yl)amino)cyclohexyl)acetamide] | 1.8
7 | C[C@]1(O)CC[C@H](Nc2nc(O)c3c(-c4ccc5nccnc5c4)ccn3n2)CC1 [Compound 346, 2-((trans-4-Hydroxy-4-methylcyclohexyl)amino)-5-(quinoxalin-6-yl)pyrrolo[2,1-f][11,2,4]triazin-4-ol] | 34.4
8 | [2H]C([2H])([2H])Oc1nc(N[C@H]2CC[C@](C)(O)CC2)nn2ccc(-c3ccc4nccnc4c3)c12 [Compound 348, trans-4-((4-(Methoxy-d3)-5-(quinoxalin-6-yl)pyrrolo[2,1-f][1,2,4]triazin-2-yl)amino)-1-methylcyclohexan-1-ol] | 2.3
9 | COc1nc(N[C@@H]2CN(C)C[C@@H]2F)nn2ccc(-c3ccc4nccnc4c3)c12 [Compound 350, N-((3R,4S)-4-Fluoro-1-methylpyrrolidin-3-yl)-4-methoxy-5-(quinoxalin-6-yl)pyrrolo[2,1-f][1,2,4]triazin-2-amine] | 1.4
10 | [2H]C([2H])([2H])Oc1nc(N[C@@H]2CN(C(C)=O)C[C@@H]2F)nn2ccc(-c3ccc4nccnc4c3)c12 [Compound 353, 1-((3S,4R)-3-Fluoro-4-((4-(methoxy-d3)-5-(quinoxalin-6-yl)pyrrolo[2,1-f][1,2,4]triazin-2-yl)amino)pyrrolidin-1-yl)ethan-1-one] | 2.2
11 | COc1nc(N[C@@H]2CN(C3COC3)C[C@@H]2F)nn2ccc(-c3ccc4nccnc4c3)c12 [Compound 355, N-((3R,4S)-4-Fluoro-1-(oxetan-3-yl)pyrrolidin-3-yl)-4-methoxy-5-(quinoxalin-6-yl)pyrrolo[2,1-f][1,2,4]triazin-2-amine] | 2.7
12 | COc1nc(N[C@H]2CN(C3COC3)C[C@H]2F)nn2ccc(-c3ccc4nccnc4c3)c12 [Compound 356, N-((3S,4R)-4-Fluoro-1-(oxetan-3-yl)pyrrolidin-3-yl)-4-methoxy-5-(quinoxalin-6-yl)pyrrolo[2,1-f][1,2,4]triazin-2-amine] | 8.8

Continued by falling IC50, values first:

Row | IC50 [nM] | SMILES
13 | 8.1 | COc1nc(N[C@H]2CN(C)C[C@H]2F)nn2ccc(-c3ccc4nccnc4c3)c12 [Compound 351, N-((3S,4R)-4-Fluoro-1-methylpyrrolidin-3-yl)-4-methoxy-5-(quinoxalin-6-yl)pyrrolo[2,1-f][1,2,4]triazin-2-amine]
14 | 6.6 | COc1nc(N[C@H]2CC[C@@](O)(C(F)(F)F)CC2)nn2ccc(-c3ccc4nccnc4c3)c12 [Compound 349, trans-4-((4-Methoxy-5-(quinoxalin-6-yl)pyrrolo[2,1-f][1,2,4]triazin-2-yl)amino)-1-(trifluoromethyl)cyclohexan-1-ol]
15 | 3.7 | COc1nc(N[C@H]2CC[C@@](C)(O)CC2)nn2ccc(-c3ccc4nccnc4c3)c12 [Compound 345, cis-4-((4-Methoxy-5-(quinoxalin-6-yl)pyrrolo[2,1-f][1,2,4]triazin-2-yl)amino)-1-methylcyclohexan-1-ol]
16 | 3.2 | COc1nc(N[C@H]2CC[C@H](C(C)(C)O)CC2)nn2ccc(-c3ccc4nccnc4c3)c12 [Compound 342, 2-(trans-4-((4-Methoxy-5-(quinoxalin-6-yl)pyrrolo[2,1-f][1,2,4]triazin-2-yl)amino)cyclohexyl)propan-2-ol]
17 | 2.3 | COc1nc(N[C@H]2C[C@](C)(O)C2)nn2ccc(-c3ccc4nccnc4c3)c12 [Compound 330, trans-3-((4-Methoxy-5-(quinoxalin-6-yl)pyrrolo[2,1-f][1,2,4]triazin-2-yl)amino)-1-methylcyclobutan-1-ol]
18 | 2 | CCC(=O)N[C@]1(C)C[C@H](Nc2nc(OC)c3c(-c4ccc5nccnc5c4)ccn3n2)C1 [Compound 335, N-(cis-3-((4-Methoxy-5-(quinoxalin-6-yl)pyrrolo[2,1-f][1,2,4]triazin-2-yl)amino)-1-methylcyclobutyl)propionamide]
19 | 1.7 | COc1nc(N[C@H]2CC[C@](C)(O)CC2)nn2ccc(-c3ccc4nccnc4c3)c12 [Compound 347, trans-4-((4-Methoxy-5-(quinoxalin-6-yl)pyrrolo[2,1-f][1,2,4]triazin-2-yl)amino)-1-methylcyclohexan-1-ol]
20 | 1.3 | COCC(=O)N[C@]1(C)C[C@H](Nc2nc(OC)c3c(-c4ccc5nccnc5c4)ccn3n2)C1 [Compound 336, 2-Methoxy-N-(cis-3-((4-methoxy-5-(quinoxalin-6-yl)pyrrolo[2,1-f][1,2,4]triazin-2-yl)amino)-1-methylcyclobutyl)acetamide]
21 | 1.2 | [2H]C([2H])([2H])Oc1nc(N[C@H]2C[C@](C)(O)C2)nn2ccc(-c3ccc4nccnc4c3)c12 [Compound 331, trans-3-((4-(Methoxy-d3)-5-(quinoxalin-6-yl)pyrrolo[2,1-f][1,2,4]triazin-2-yl)amino)-1-methylcyclobutan-1-ol]
22 | 1.2 | CNC(=O)[C@]1(C)C[C@@H](Nc2nc(OC)c3c(-c4ccc5nccnc5c4)ccn3n2)C1 [Compound 338, trans-3-((4-Methoxy-5-(quinoxalin-6-yl)pyrrolo[2,1-f][1,2,4]triazin-2-yl)amino)-N,1-dimethylcyclobutane-1-carboxamide]
23 | 0.9 | COc1nc(N[C@H]2C[C@](C)(NC(C)=O)C2)nn2ccc(-c3ccc4nccnc4c3)c12 [Compound 334, N-(trans-3-((4-Methoxy-5-(quinoxalin-6-yl)pyrrolo[2,1-f][1,2,4]triazin-2-yl)amino)-1-methylcyclobutyl)acetamide]
24 | 0.7 | COc1nc(N[C@H]2CC[C@@H](OCCO)CC2)nn2ccc(-c3ccc4nccnc4c3)c12 [Compound 343, 2-((cis-4-((4-Methoxy-5-(quinoxalin-6-yl)pyrrolo[2,1-f][1,2,4]triazin-2-yl)amino)cyclohexyl)oxy)ethan-1-ol]
